According to US10052320B2, “Substituted quinoxalines as FGFR kinase inhibitors” (ASTEX THERAPEUTICS LIMITED, priority 2011, dated 2018):
Structures can show the parent of a compound that is named as a salt.

melting point	Structure (SMILES)
174 °C	COc1cc(OC)cc(N(CCNC(C)C)c2ccc3ncc(-c4cccnc4)nc3c2)c1 (as salt: HCl) (hydrate or solvate) [Compound 10]
105 °C	COc1cc(OC)cc(N(CC2CC2)c2ccc3ncc(-c4ccc5c(ccn5C)c4)nc3c2)c1 (as salt: HCl) (hydrate or solvate) [Compound 20]
193 °C	COc1cc(OC)cc(N(CCNC(C)C)c2ccc3ncc(N4CCC(CN)CC4)nc3c2)c1 (as salt: HCl) (hydrate or solvate) [Compound 67]
150 °C	COc1cc(OC)cc(N(CCNC(C)C)c2ccc3ncc(-n4cnc(CO)c4)nc3c2)c1 (as salt: HCl) (hydrate or solvate) [Compound 77]
149 °C	COc1cc(OC)cc(N(CCNC(C)C)c2ccc3ncc(-c4ccccc4)nc3c2)c1 (as salt: HCl) (hydrate or solvate) [Compound 121]
188 °C	COc1cc(OC)cc(N(CCNC(C)C)c2ccc3ncc(-c4ccnc(C(=O)NCCCN)c4)nc3c2)c1 (as salt: HCl) (hydrate or solvate) [Compound 146]
138 °C	COc1cc(OC)cc(N(CCCNCC(F)(F)F)c2ccc3ncc(C(=O)NCCN4CCOCC4)nc3c2)c1 (as salt: HCl) (hydrate or solvate) [Compound 158]
176 °C	COc1cc(OC)cc(N(CCNC(C)C)c2ccc3ncc(C(=O)NCCCN4CCN(C)CC4)nc3c2)c1 (as salt: HCl) (hydrate or solvate) [Compound 159]
149 °C	COc1cc(OC)cc(N(CCNC(C)C)c2ccc3ncc(C(=O)NCCN4CCOCC4)nc3c2)c1 (as salt: HCl) (hydrate or solvate) [Compound 160]
185 °C	COc1cc(OC)cc(N(CCNC(C)C)c2ccc3ncc(NCC4CCNCC4)nc3c2)c1 (as salt: HCl) (hydrate or solvate) [Compound 161]
250 °C	COc1cc(OC)cc(N(CCNC(C)C)c2ccc3ncc(C(=O)N4CCN(C)CC4)nc3c2)c1 (as salt: HCl) (hydrate or solvate) [Compound 179]
236 °C	COc1cc(OC)cc(N(CCNC(C)C)c2ccc3ncc(C(=O)N4CCCCC4)nc3c2)c1 (as salt: HCl) (hydrate or solvate) [Compound 180]
255 °C	COc1cc(OC)cc(N(CCNC(C)C)c2ccc3ncc(C(=O)N4CCOCC4)nc3c2)c1 (as salt: HCl) (hydrate or solvate) [Compound 181]
186 °C	COc1cc(OC)cc(N(CCCNCC(F)(F)F)c2ccc3ncc(-c4ccn(C)c4)nc3c2)c1 (as salt: HCl) [Compound 5]
200 °C	COc1cc(OC)cc(N(CCNC(C)C)c2ccc3ncc(-c4ccn(C)c4)nc3c2)c1 (as salt: HCl) [Compound 8]
223 °C	COc1cc(OC)cc(N(CC2CC2)c2ccc3ncc(-n4ccnc4C)nc3c2)c1 (as salt: HCl) [Compound 32]
170 °C	COc1cc(OC)cc(N(Cc2cccc(CN)n2)c2ccc3ncc(-c4ccc(N)nc4)nc3c2)c1 (as salt: HCl) [Compound 51]
134 °C	COc1cc(OC)cc(N(CC2CC2)c2ccc3ncc(-c4ccn[nH]4)nc3c2)c1 (as salt: HCl) [Compound 58]
145 °C	COc1cc(OC)cc(N(CCNC(C)C)c2ccc3ncc(-c4ccn[nH]4)nc3c2)c1 (as salt: HCl) [Compound 189]
80 °C	COCC(CN(c1cc(OC)cc(OC)c1)c1ccc2ncc(-c3cccnc3)nc2c1)OC(C)=O (single isomer, unassigned) (as salt: HCl) (hydrate or solvate) [Compound 76]
222 °C	COc1cc(OC)cc(N(CCN2C(=O)c3ccccc3C2=O)c2ccc3ncc(-c4ccc(N)nc4)nc3c2)c1 [Compound 57]
